Measurements from patent publication US20240238281A1, “PIPERAZINE DERIVATIVES AND APPLICATION THEREOF” (priority 2021, published 2024).
pEC50: −log10 of the molar value.

Legend:
Assay type in all cases: cell-based
MC3R = target: T1, MC3R (Homo sapiens, UniProt P41968); assay: In vitro activity of MCR receptors, intracellular cAMP signal (HEK293T/MCR cell line), MC3R
T1 construct: expressed in transfected cells
Procedure: (§1) Test purpose: to evaluate the agonistic effect of the compound on MCRs by detecting intracellular cAMP signal changes.
(§2) Cells were resuspended with 1×PBS+500 μM IBMX. 10 μL of the cell suspension was added into a 384-well plate to be tested, and the cell concentration was adjusted to 1×10^4 cells per well for later use. A pre-prepared solution of the compound to be tested was added, and dimethyl sulfoxide of the same volume was added to blank control wells. The test plate was centrifuged at 300 rpm for 1 minute, incubated at 37° C. for 30 minutes, and added with 5 μL of cAMP-d2 and 5 μL of a CAMP-cry antibody detection reagent. The test plate was centrifuged at 300 rpm for 1 minute, and incubated at room temperature for 60 minutes.

MC5R = target: T2, MC5R (Homo sapiens, UniProt P33032); assay: In vitro activity of MCR receptors, intracellular cAMP signal (HEK293T/MCR cell line), MC5R; conditions: cAMP, HEK293T/MCR cell line; read-out: MC5R EC50
T2 construct: expressed in transfected cells
Procedure: as §1
as §2, with “minutes. The test plate was placed in the Envision multifunctional microplate reader for reading, with a detection wavelength of 665/615 nm.” for “minutes.”

MC4R = target: T3, MC4R (Homo sapiens, UniProt P32245); assay: In vitro activity of MCR receptors, intracellular cAMP signal (HEK293T/MCR cell line), MC4R; conditions: cAMP, HEK293T/MCR cell line; read-out: MC4R EC50
T3 construct: expressed in transfected cells
Procedure: as §1
as §2, with “minutes. The test plate was placed in the Envision multifunctional microplate reader for reading, with a detection wavelength of 665/615 nm.” for “minutes.”

T2 sequence (P33032 whole entry): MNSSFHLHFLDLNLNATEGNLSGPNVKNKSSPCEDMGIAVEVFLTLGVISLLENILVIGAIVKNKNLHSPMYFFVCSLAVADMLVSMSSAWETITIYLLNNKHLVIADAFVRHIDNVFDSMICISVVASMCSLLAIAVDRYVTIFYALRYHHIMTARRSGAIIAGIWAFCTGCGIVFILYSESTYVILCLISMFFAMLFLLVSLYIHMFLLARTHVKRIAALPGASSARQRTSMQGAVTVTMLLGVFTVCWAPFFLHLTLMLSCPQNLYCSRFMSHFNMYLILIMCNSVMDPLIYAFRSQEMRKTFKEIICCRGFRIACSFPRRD
T3 sequence (P32245 whole entry): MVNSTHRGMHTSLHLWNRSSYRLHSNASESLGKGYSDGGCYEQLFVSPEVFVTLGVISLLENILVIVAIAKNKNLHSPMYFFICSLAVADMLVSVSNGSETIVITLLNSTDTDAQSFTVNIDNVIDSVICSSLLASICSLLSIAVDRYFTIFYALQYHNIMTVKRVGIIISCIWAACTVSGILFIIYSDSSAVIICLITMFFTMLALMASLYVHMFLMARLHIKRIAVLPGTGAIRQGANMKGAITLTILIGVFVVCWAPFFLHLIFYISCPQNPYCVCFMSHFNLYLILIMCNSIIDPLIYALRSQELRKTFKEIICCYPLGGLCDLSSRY
T1 sequence (P41968 whole entry): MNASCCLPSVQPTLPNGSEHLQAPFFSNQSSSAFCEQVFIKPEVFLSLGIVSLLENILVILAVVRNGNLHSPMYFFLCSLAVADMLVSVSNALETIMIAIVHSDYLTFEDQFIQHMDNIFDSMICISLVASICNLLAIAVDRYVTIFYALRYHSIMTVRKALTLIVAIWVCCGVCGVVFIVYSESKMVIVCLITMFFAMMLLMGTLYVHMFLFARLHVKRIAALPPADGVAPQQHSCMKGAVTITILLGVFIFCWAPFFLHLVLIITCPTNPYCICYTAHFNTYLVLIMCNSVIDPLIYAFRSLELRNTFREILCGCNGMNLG

- pEC50 (MC3R): 5.38
- pEC50 (MC5R): < 5.00
- pEC50 (MC4R): 7.92
Compound: C[C@@H]1CN(C(=O)[C@@H]2CN(C3CCOCC3)C[C@H]2c2ccc(F)cc2F)C[C@H](C)N1c1ccc(F)cc1 (single isomer, unassigned) [Compound 7]
